# Test results taken from patent US6268496A, “Certain imidazoquinoxalines: a new class of GABA brain receptor ligands” (Neurogen Corporation, priority 1999, dated 2001).
# Experiments:
# [1] = test system: benzodiazepine binding site; details: cited from earlier work
# GABAa receptor = GABAa receptor activity: displacement of 3H-RO15-1788 (3H-Flumazenil) binding in rat cortical tissue homogenate; details: 0.5 nM 3H-RO15-1788 [3H-Flumazenil], 30 min at 4° C., pH 7.4
# Procedure: Rat cortical tissue is dissected and homogenized in 25 volumes (w/v) of 0.05 M Tris HCl buffer (pH 7.4 at 4° C.). The tissue homogenate is centrifuged in the cold (4°) at 20,000×g for 20'. The supernatant is decanted and the pellet is rehomogenized in the same volume of buffer and again centrifuged at 20,000×g. The supernatant is decanted and the pellet is frozen at -20° C. overnight. The pellet is then thawed and rehomogenized in 25 volume (original wt/vol) of buffer and the procedure is carried out twice. The pellet is finally resuspended in 50 volumes (w/vol of 0.05 M Tris HCl buffer (pH 7.4 at […]).
# Incubations are carried for 30 min at 4° C. then are rapidly filtered through GFB filters to separate free and bound ligand. Filters are washed twice with fresh 0.05 M Tris HCl buffer (pH 7.4 at 4° C.) and counted in a liquid scintillation counter. […] diazepam is added to some tubes to determine nonspecific binding. Data are collected in triplicate determinations, averaged and % inhibition of total specific binding is calculated. Total Specific Binding=Total-Nonspecific. In some cases, the amounts of unlabeled drugs is varied and total displacement curves of binding are carried out. Data are converted to a form for the calculation of IC50 and Hill Coefficient (nH).
IC50 (GABAa receptor) [nM],Compound,also measured
–,CN1CCc2cc3c(cc2[C@H]1[C@@H]1OC(=O)c2c1ccc1c2OCO1)OCO3 [(+) bicuculline],block of the enhancement of benzodiazepine binding by GABA agonists [1]: blocked
–,CN1CCc2cc3c(cc2[C@@H]1[C@H]1OC(=O)c2c1ccc1c2OCO1)OCO3 [(-) bicuculline],block of the enhancement of benzodiazepine binding by GABA agonists [1]: much less active
9.5,"O=c1c2c[nH]c3ccccc3n-2c(=O)n1-c1ccccc1 [Compound 1, 2-Phenyl-imidazo[1,5-a]quinoxaline-1,3(2H,5H)-dione]",–
9.5,"COc1ccc(-n2c(=O)c3c[nH]c4ccccc4n-3c2=O)cc1 [Compound 4, 2-(4-Methoxyphenyl)-imidazo[1,5,a]quinoxaline-1,3(2H,5H)-dione]",–
16,"Cc1ccc(-n2c(=O)c3c[nH]c4ccccc4n-3c2=O)cc1 [Compound 5, 2-(4-Methylphenyl)-imidazo[1,5,a]quinoxaline-1,3(2H,5H)-dione]",–
–,"NCCCC(=O)O [GABA, γ-Aminobutyric acid]",effect on binding of benzodiazepines ([1]; low affinity (1 mM) GABA binding site): enhance the binding of benzodiazepines

Compound,IC50 (GABAa receptor) [nM],also measured
"CCOc1ccc(-n2c(=O)c3c[nH]c4ccccc4n-3c2=O)cc1 [Compound 3, 2-(4-ethoxyphenyl)-imidazo[1,5,a]quinoxaline-1,3(2H,5H)-dione]",15,–
"COc1ccc(-n2c(=O)c3c[nH]c4ccc(Br)cc4n-3c2=O)cc1 [Compound 33, 8-Bromo-2-(4-methoxyphenyl)-imidazo[1,5,a]quinoxaline-1,3(2H,5H)-dione]",2.4,–
